{"source": "patent EP4135668B1", "about": "“SOLID ORAL DOSAGE FORM COMPRISING POMALIDOMIDE” (Tecnimede, Sociedade Técnico-Medicinal, SA, priority 2020, dated 2021)", "origin": "cited, not measured here", "settings": "low aqueous solubility and low permeability active compound", "data": [{"smiles": "Nc1cccc2c1C(=O)N(C1CCC(=O)NC1=O)C2=O", "note": "(stereo not shown) [Pomalidomide, 4-amino-2-(2,6-dioxopiperidine-3-yl)isoindoline-l,3-dione]", "values": [{"measurement": "Biopharmaceutics Classification System (BCS) class", "value": "Class IV"}]}]}
